Patent US20260217711A1, “TRIAZOLOPYRIDINYL ETHER LINKED COMPOUNDS AS KINASE INHIBITORS” (Bristol-Myers Squibb Company, priority 2023, published 2026)

Legend:
hWB = assay: hWB; format: cell-based; details: printed as "hWB" value in the pMLKL IC50 column; no method given
[1] = biological target: T1, MDR1 P-glycoprotein (P-gp) (Homo sapiens, UniProt P08183); assay: Transporter assay, bi-directional transport, MDCK-MDR1 cells; format: in vitro ADME; details: human, MDCK-MDR1, 0.1 uM, basolateral to apical / apical to basolateral, >2 = substrate, read-out: PGP (efflux ratio)
T1 construct: host or cells: MDCK (MDCK-MDR1)
T1 sequence (P08183 whole entry): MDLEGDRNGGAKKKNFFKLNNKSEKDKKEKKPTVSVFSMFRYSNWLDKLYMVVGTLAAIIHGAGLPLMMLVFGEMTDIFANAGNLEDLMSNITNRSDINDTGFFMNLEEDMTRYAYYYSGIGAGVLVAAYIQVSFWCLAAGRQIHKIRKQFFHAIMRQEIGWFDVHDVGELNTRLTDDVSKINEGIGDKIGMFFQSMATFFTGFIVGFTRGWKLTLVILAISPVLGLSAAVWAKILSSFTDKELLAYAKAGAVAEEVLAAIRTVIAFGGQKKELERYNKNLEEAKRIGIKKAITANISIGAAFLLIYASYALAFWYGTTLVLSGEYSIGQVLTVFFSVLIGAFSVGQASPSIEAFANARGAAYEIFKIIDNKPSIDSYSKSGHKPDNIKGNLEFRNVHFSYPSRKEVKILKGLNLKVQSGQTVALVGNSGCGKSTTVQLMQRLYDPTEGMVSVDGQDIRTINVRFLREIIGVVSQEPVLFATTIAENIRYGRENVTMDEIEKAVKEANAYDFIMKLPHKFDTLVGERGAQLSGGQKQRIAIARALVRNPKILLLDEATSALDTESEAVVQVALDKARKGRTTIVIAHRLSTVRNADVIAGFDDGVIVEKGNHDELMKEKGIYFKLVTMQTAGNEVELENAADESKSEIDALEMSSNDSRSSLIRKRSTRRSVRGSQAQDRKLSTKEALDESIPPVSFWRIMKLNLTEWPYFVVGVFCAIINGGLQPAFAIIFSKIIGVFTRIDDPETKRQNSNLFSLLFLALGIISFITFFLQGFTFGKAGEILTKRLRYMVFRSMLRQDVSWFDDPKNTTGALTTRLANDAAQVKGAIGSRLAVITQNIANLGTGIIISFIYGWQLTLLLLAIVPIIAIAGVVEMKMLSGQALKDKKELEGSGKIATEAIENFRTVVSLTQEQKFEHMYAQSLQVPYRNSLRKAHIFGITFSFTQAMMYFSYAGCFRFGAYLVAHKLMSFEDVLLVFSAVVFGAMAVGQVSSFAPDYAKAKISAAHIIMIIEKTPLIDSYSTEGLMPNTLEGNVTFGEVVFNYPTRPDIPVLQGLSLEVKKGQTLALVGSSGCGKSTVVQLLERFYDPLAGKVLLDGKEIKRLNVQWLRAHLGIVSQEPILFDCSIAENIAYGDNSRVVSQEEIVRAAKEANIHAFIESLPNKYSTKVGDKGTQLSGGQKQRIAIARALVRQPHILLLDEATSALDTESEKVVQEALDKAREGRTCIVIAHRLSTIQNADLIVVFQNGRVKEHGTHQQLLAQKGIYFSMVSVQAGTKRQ
Experimental: (§1) Compounds were assessed as substrates of MDR1 P-glycoprotein (P-gp) and mouse Breast Cancer Resistance Protein (mBcrp) at 0.1 uM, for 2 hours, in bi-directional transport assays using recombinant MDCK cell lines as described previously (Feng et al. Drug Metabolism and Disposition 2008, Vol. 36:268-275). MDCK-MDR1 and MDCK-mBcrp cells were acquired from the National Institutes of Health (Bethesda, MID) and the Netherlands Cancer Institute respectively, and used under license agreement. Data are expressed as efflux ratios, where transport across the cell monolayer in the basolateral to apical direction is divided by transport in the apical to basolateral direction. Efflux ratios >2 indicate the test compound is a substrate of the transporter tested.

[2] = biological target: T2, mouse Breast Cancer Resistance Protein (mBcrp) (Mus musculus, UniProt Q7TMS5); assay: Transporter assay, bi-directional transport, MDCK-mBcrp cells; format: in vitro ADME; details: mouse, basolateral to apical / apical to basolateral, >2 = substrate, read-out: BCRP (efflux ratio)
T2 construct: host or cells: MDCK (MDCK-mBcrp)
T2 sequence (Q7TMS5 1-657): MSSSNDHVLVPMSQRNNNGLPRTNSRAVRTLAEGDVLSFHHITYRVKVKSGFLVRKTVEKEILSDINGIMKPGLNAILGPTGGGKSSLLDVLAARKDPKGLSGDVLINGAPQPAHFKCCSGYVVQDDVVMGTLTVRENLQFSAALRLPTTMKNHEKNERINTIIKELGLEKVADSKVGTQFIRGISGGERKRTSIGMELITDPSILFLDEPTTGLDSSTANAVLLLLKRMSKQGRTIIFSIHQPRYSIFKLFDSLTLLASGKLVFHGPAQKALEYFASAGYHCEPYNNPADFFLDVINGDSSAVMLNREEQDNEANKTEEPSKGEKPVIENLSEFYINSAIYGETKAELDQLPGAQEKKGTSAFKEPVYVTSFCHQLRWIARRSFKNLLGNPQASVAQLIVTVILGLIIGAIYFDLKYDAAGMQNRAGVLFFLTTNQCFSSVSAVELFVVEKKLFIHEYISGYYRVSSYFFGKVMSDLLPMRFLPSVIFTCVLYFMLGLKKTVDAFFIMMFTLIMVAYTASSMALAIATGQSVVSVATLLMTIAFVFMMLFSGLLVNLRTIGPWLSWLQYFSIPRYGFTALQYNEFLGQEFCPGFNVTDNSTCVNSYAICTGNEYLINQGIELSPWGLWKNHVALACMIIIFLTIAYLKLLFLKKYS
Experimental: as §1

Row | Compound | IC50 (hWB) | efflux ratio at 2 h, 0.1 uM [1] | efflux ratio at 2 h, 0.1 uM [2]
1 | CC(O)(c1ccc(F)cn1)C(F)(F)CCOc1c(F)ccc(-c2ccn3nc(N)nc3c2)c1F (single isomer, unassigned) [Example 27, 5-(3-(2-amino-[1,2,4]triazolo[1,5-a]pyridin-7-yl)-2,6-difluorophenoxy)-3,3-difluoro-2-(5-fluoropyridin-2-yl)pentan-2-ol] | 64 nM | 1.1 | 1.6
2 | CC(O)(c1ccc(F)cc1)C(F)(F)CCOc1c(F)c(F)cc(-c2ccn3nc(N)nc3c2)c1F (single isomer, unassigned) [Example 30, 5-(3-(2-amino-[1,2,4]triazolo[1,5-a]pyridin-7-yl)-2,5,6-trifluorophenoxy)-3,3-difluoro-2-(4-fluorophenyl)pentan-2-ol] | 8 nM | 2.5 | 3
